Measurements published in ChEMBL document CHEMBL3507680, “University of Dundee, Gates Library screen for HepG2 cell viability”.

Test: Human HepG2 cell viability assay in 384 well format
Type: toxicity, cell-based
Set-up: dose 125 nL, time 70.5 hour; concentration not given beside the values
Settings: HepG2 cells, read-out: Inhibition

SMILES	cytotoxicity at 70.5 h [%]
NC(=O)c1cn[nH]c1C1CCCN1C(=O)c1ccccc1 (configuration not stated)	-5.37
Cc1ccc(F)c(NC(=O)NCCCn2nc3ccccn3c2=O)c1	-3.3
Cc1nc(CN(C)Cc2cnc(N3CCOCC3)s2)no1	22.9
NC1(c2nc(-c3ccccc3)cc(=O)[nH]2)CCCC1	13.8
Cc1nc2cc(C(=O)N(CCN(C)C)CCN(C)C)ccc2n1C	-7.57
CC(NC(=O)c1cn(CCC2CCCCC2)nn1)c1cnn(C)c1 (configuration not stated)	20.4
CCCN(CC1COc2ccccc2O1)C(=O)c1ncoc1CC (configuration not stated)	-7.46
COc1ccc2nnc(CCCC(=O)NCc3ccccc3)n2n1	-13.2
COC[C@@]12CCC[C@@H]1CN(C(=O)CN(C)C)C2	-6.84
CN(CCCc1cnn(C)c1)C(=O)C1CCN(C(=O)C2CCC2)CC1	-10.7
CCOC(=O)N(C)C1CCN(Cc2ccsc2)CC1	19.3
CSCC[C@H](NC(=O)CCn1cc(C(C)=O)c2ccccc21)C(=O)O	-8.28
CCOCCSc1nnc(Cc2ccccc2F)o1	-0.117
CCOc1cc(/C=C/c2ncc(C(=O)NC)s2)ccc1OC	-13.2
CN1CCC2(CCN(C(=O)c3cccnc3)C2)C1 (configuration not stated)	0.955
CN1C[C@@H]2CN(C(=O)NCc3ccccc3)CCC[C@]2(C(=O)O)C1	-1.78
COc1cnc(N2C[C@@H](CN3CCOCC3)C[C@H](CO)C2)nc1	-2.56
Cc1nnc([C@H]2C[C@H]3OCC[C@H]3N(S(=O)(=O)N(C)C)C2)o1	-3.65
CCn1ccnc1CN(C)c1cc(N(C)C)ncn1	0.0154

SMILES	cytotoxicity at 70.5 h [%]
CCn1cc(-c2cc(-c3ccn(C)c3)nc(N)c2C#N)cc1C#N	5.48
CC(C)(CNC(=O)C1CCCN(C(N)=O)C1)c1cccc(Cl)c1 (configuration not stated)	9.61
O=C(c1csc2nc(-c3ccc(Cl)cc3)cn12)N1CCCC(CO)C1 (configuration not stated)	-5.49
CSCCNC(=O)c1ccc(OC2CCN(CC(C)(C)C)CC2)c(Cl)c1	-7.8
Cc1cc(NC(=O)N2CCN(C)CC2C)n(C(C)(C)C)n1 (configuration not stated)	-9.8
CNc1nccnc1C1CN(Cc2ccc3[nH]ccc3c2)CCO1 (configuration not stated)	-2.11
Cn1cccc1C(=O)N1CCO[C@@H]2CN(Cc3nccs3)C[C@@H]2C1	-6.7
COc1ccc(C(C)Nc2nc3c(C)nn(C)c3c(=O)n2C)cc1 (configuration not stated)	-3.89
CC(C)(C)c1cc(NC(=O)CN2CCc3cncnc3C2)on1	3.44
COc1ccccc1OCCNC(=O)CN1CCc2cncnc2C1	-5.72
O=C(NC1CCCN(c2ccc(OC(F)F)cc2)C1)c1cnccn1 (configuration not stated)	-6.56
N#CCCN1CCN(S(=O)(=O)c2ccc(Cl)s2)CC1	15.9
Cn1nccc1C1CCN(Cc2cnn(-c3ccccc3)n2)CC1	20.8
Cc1nn(C)c2ncnc(N3CCCC(OCc4ccccn4)C3)c12 (configuration not stated)	1.57
Cc1nc(CN(C)C2CCN(Cc3nnc(C4CC4)o3)C2)no1 (configuration not stated)	2.48
COc1cccc(-c2nccnc2C2CCN(C(C)=O)CC2)c1	-8.61
Cc1nc(C(C)C)sc1C(=O)N1CCN(C2CCSCC2)CC1	9.03
Cc1noc(C)c1CN1CCO[C@H]2CN(C(=O)N3CCCC3)C[C@H]21	0.539
CS(=O)(=O)N1C[C@H]2CCC[C@@]2(COCC2CCOCC2)C1	-4.48

SMILES	cytotoxicity at 70.5 h [%]
CCc1nc(NCCc2c(C)nn(CC)c2C)c2cnn(C)c2n1	-9.28
Cc1nn(C)c(Cl)c1C1CCCN1C(=O)c1cnccn1 (configuration not stated)	-7.92
CCCc1nc(C(=O)N2CCN(S(=O)(=O)CC)CC2)cs1	10.2
COc1no[n+]([O-])c1-c1ccccc1	2.46
CN(Cc1ccccn1)CC1CCCN1c1cccnn1 (configuration not stated)	-5.71
Cc1cnc2[nH]c(C(F)(F)F)c(CN3CCSCC3)c2c1	-0.92
CN(C)CCOc1ccc(CNC(=O)c2cccc(Cl)c2Cl)cc1	8.38
CC(=O)N1CCC2(CC1)CN(C(C)=O)CC21CCNC1=O (configuration not stated)	16.2
COc1ccc(OCC(=O)NS(=O)(=O)c2ccc(Cl)s2)cc1	-8.59
COC(=O)c1cccc(NC(=O)CN2CCN(S(C)(=O)=O)CC2)c1	-9.51
CCCOc1ccc(CNC2CCCc3c2cnn3CC)cc1OC (configuration not stated)	29.4
CC(C)c1nnc2n1CCN(C(=O)c1ccc3c(c1)NC(=O)CO3)C2	-2.96
CCn1c(N)nc2cc(C(=O)N3CCN(CC(F)(F)F)CC3)cnc21	-13
CC(C)c1cc(C(=O)NCCn2nc3ccccn3c2=O)n[nH]1	-4.09
CN(Cc1cc[nH]n1)C(=O)c1cn(Cc2c(F)cccc2F)nn1	-8.9
Cc1cc(C)n(CC(=O)N(C)Cc2csc(-c3cccs3)n2)c(=O)n1	6.7
CCn1nnc2c1C(COCCN(C)C)CN(S(C)(=O)=O)C2 (configuration not stated)	2.19
Clc1ccccc1CN1CCc2nc(C3CCNCC3)ncc2C1	-6.61
CC(C)NCc1cc2n(n1)CCN(C1CCCCC1)C2	9.14
